Assay results taken from patent US10662229B2, “Spider venom peptides and methods of use for modulating sodium channels” (priority 2016, dated 2020).
“Also recorded” adds a separate entry of the source.

Tests used:
hNav1.2 = molecular target: T1, hNav1.2 (Homo sapiens, UniProt Q99250); experiment: Automated patch clamping (QPatch-16), hNav1.2; assay type: cell-based
T1 construct: host or cells: HEK293
Method: (§1) HEK293 cells stably expressing hNav1.1-1.7 or CHO cells stably expressing hNav1.8 (as described in Example 3 above) were cultured in a T-175 flask in selection antibiotic-free media at 37° C. Cells were grown to 70-80% confluence and harvested using Detachin (Bio-Scientific, NSW, Australia) at 37° C. for 2 min. Dissociated cells were then resuspended in Ex-Cell ACF CHO Medium with HEPES (25 mM; Sigma-Aldrich Co.) and allowed to recover on the QStirrer for 30 min.
(§2) The extracellular solution contained in mM: NaCl 145, KCl 4, CaCl2 2, MgCl2 1, HEPES 10 and glucose 10. The pH was adjusted to 7.4 with NaOH and osmolarity was adjusted with sucrose to 305 mOsm. The intracellular solution contained in mM: CsF 140, ethylene glycol tetraacetic acid (EGTA)/CsOH 1/5, HEPES 10 and NaCl 10. The pH was adjusted to 7.3 with CsOH and osmolarity adjusted with sucrose to 320 mOsm. […]
(§3) The current-voltage (IV) curve was constructed with a holding potential of −80 mV followed by a pre-pulse of −100 mV for 50 ms and a series of 50 ms step pulses that ranged from −80 to 50 mV in 5 mV increments before returning to a holding potential of −80 mV. Voltage-dependence of activation was determined as normalized Nav conductance (GNa) using: GNa=INa/(Vmemb−Vrev), where Vmemb is the membrane potential and Vrev is the reversal potential for each cell. […]

hNav1.5 = molecular target: T2, hNav1.5 (Homo sapiens, UniProt Q14524); experiment: Automated patch clamping (QPatch-16), hNav1.5; assay type: cell-based
T2 construct: host or cells: HEK293
Method: as §1, §2, §3

hNav1.8 [1] = molecular target: T3, hNav1.8 (Homo sapiens, UniProt Q9Y5Y9); experiment: Automated patch clamping (QPatch-16), hNav1.8; assay type: cell-based
T3 construct: host or cells: HEK293
Method: as §1, §2, §3

hNav1.8 [2] = molecular target: T3, hNav1.8; experiment: FLIPR membrane potential assay, hNav1.8; assay type: cell-based
How it was run: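 HEK293 cells stably expressing each human Nav subtype were plated 48 h ahead and loaded with red membrane potential dye for 30 min at 37° C.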

hNav1.4 = molecular target: T4, hNav1.4 (Homo sapiens, UniProt P35499); experiment: Automated patch clamping (QPatch-16), hNav1.4; assay type: cell-based
T4 construct: host or cells: HEK293
Method: as §1, §2, §3

hNav1.6 = molecular target: T5, hNav1.6 (Homo sapiens, UniProt Q9UQD0); experiment: Automated patch clamping (QPatch-16), hNav1.6; assay type: cell-based; settings: mean±SEM
T5 construct: host or cells: HEK293
Method: as §1, §2, §3

[3] = Stability of Pnc1a in solutions (RP-HPLC/MS); assay type: physicochemical; settings: room temperature
[4] = system: post-operative pain in mice; experiment: Post-operative pain (plantar incision); assay type: in vivo; settings: 24 h after incision
Method: (§4) For behavioural assessment adult male C57BL/6J mice aged 6-8 weeks were used. Animals were housed in groups of 3 or 4 per cage, under 12 h light-dark cycles and had standard rodent chow and water ad libitum.
Mechanical allodynia was assessed using an electronic von Frey apparatus (MouseMet Electronic von Frey, TopCat Metrology Ltd, United Kingdom). Mice were habituated in individual mouse runs for at least 5 min prior to testing. A soft-tipped 0.3 mm diameter flat-ended polypropylene probe was applied to the plantar surface of each hind paw with pressured applied at a force rise rate of ˜1 g/s. The force that elicited paw withdrawal was calculated using the MouseMet Software. The paw withdrawal force (PWF) was determined from the average of three tests, separated by at least 2 min.
To induce post-operative (post-surgical) pain, the plantar skin of the hind paw of mice was incised under light isoflurane (3%) anaesthesia. Briefly, a 7 mm longitudinal incision was made through the skin and fascia 3 mm from the proximal edge of the heel using a sterile surgical scalpel (#11). The underlying plantaris muscle was elevated and also incised longitudinally. The wound was closed with two silk sutures. Mechanical allodynia was assessed 24 h after the incisional injury.

[5] = system: OD1-induced spontaneous pain behaviours in mice; experiment: OD1 model of spontaneous pain behaviours; assay type: in vivo
Method: as §4
OD1 was diluted in phosphate-buffered saline/0.1% BSA (300 nM) and administered by shallow subcutaneous (intraplantar) injection to the left hind paw of mice in a volume of 40 μL under light isoflurane (3%) anesthesia. Mice were then placed individually into polyvinyl boxes (10×10×10 cm), and spontaneous pain behavior (licks and flinches) was counted by an investigator unaware of the treatments received from video recordings for 10 min post-injection.

hNav1.7 = molecular target: T6, hNav1.7 (Homo sapiens, UniProt Q15858); experiment: Automated patch clamping (QPatch-16), hNav1.7; assay type: cell-based; settings: for voltage dependence of activation, V50: control −25.1±0.5 mV
T6 construct: host or cells: HEK293
Method: as §1
The extracellular solution contained in mM: NaCl 145, KCl 4, CaCl2 2, MgCl2 1, HEPES 10 and glucose 10. The pH was adjusted to 7.4 with NaOH and osmolarity was adjusted with sucrose to 305 mOsm. The intracellular solution contained in mM: CsF 140, ethylene glycol tetraacetic acid (EGTA)/CsOH 1/5, HEPES 10 and NaCl 10. The pH was adjusted to 7.3 with CsOH and osmolarity adjusted with sucrose to 320 mOsm.
Whole-cell patch-clamp experiments were performed on a QPatch-16 automated electrophysiology platform (Sophion Bioscience, Ballerup, Denmark) using 16-channel planar patch chip plates (QPlates; Sophion Bioscience) with a patch hole diameter of 1 μm and resistance of 2±0.02 MΩ with the following parameters: positioning pressure −60 mbar, minimum seal resistance 0.1 GΩ, holding potential −100 mV, holding pressure −20 mbar.
Whole-cell currents were filtered at 5 kHz and acquired at 25 kHz.
The current-voltage (IV) curve was constructed with a holding potential of −80 mV followed by a pre-pulse of −100 mV for 50 ms and a series of 50 ms step pulses that ranged from −80 to 50 mV in 5 mV increments before returning to a holding potential of −80 mV. Voltage-dependence of activation was determined as normalized Nav conductance (GNa) using: GNa=INa/(Vmemb−Vrev), where Vmemb is the membrane potential and Vrev is the reversal potential for each cell. The voltage of activation data was fitted to a Boltzmann sigmoidal curve using GraphPad Prism, version 6.0.

T6 sequence (Q15858 whole entry): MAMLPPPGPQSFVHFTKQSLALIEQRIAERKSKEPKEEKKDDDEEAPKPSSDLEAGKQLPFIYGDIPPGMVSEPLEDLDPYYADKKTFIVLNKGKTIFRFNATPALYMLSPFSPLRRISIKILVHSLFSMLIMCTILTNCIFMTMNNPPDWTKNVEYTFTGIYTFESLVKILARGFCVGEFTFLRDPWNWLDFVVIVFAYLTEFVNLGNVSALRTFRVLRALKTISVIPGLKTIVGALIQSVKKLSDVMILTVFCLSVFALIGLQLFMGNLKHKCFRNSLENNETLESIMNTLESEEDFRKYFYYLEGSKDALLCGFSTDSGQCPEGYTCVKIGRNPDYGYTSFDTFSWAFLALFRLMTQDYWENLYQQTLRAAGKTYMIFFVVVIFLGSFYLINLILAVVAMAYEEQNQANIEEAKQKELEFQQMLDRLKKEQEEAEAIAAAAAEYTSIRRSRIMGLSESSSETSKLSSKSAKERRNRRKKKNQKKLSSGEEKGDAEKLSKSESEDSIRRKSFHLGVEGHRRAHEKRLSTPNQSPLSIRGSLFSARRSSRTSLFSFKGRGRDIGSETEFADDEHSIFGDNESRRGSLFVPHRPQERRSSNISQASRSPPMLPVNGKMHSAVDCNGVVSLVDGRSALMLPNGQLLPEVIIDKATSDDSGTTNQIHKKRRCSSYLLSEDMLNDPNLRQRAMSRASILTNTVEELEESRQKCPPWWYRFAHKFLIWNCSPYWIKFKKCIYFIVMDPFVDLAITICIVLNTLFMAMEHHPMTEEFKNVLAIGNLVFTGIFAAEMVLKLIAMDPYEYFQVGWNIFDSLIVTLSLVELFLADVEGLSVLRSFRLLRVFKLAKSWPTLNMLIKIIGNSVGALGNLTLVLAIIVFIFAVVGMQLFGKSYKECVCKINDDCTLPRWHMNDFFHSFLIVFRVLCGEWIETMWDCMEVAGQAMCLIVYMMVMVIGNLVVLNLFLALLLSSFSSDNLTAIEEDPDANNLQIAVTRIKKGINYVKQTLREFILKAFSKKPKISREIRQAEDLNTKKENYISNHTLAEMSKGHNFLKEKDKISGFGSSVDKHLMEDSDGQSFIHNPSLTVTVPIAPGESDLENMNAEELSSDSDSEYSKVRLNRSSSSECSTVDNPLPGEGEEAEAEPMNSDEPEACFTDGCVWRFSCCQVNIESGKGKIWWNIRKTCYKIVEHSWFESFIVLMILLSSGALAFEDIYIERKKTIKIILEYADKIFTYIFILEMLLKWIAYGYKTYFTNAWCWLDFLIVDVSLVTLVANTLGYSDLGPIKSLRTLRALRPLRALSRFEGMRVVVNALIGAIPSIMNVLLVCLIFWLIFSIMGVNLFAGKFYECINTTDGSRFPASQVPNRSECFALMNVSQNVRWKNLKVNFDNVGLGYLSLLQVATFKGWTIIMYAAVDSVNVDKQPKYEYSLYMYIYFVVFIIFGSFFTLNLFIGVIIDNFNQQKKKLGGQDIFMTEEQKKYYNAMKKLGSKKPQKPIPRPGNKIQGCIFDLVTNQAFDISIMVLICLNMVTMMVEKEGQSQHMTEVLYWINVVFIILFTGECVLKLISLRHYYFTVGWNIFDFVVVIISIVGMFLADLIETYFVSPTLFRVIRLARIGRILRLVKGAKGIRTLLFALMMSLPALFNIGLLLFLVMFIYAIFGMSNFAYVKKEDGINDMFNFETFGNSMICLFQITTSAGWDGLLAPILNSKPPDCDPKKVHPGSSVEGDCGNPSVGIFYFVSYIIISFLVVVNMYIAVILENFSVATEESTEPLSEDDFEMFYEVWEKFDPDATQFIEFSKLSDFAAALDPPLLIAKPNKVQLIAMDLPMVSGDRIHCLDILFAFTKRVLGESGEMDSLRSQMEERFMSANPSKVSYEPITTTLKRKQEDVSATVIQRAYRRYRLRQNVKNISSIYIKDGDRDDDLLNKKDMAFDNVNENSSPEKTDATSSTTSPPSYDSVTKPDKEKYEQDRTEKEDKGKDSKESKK
T3 sequence (Q9Y5Y9 whole entry): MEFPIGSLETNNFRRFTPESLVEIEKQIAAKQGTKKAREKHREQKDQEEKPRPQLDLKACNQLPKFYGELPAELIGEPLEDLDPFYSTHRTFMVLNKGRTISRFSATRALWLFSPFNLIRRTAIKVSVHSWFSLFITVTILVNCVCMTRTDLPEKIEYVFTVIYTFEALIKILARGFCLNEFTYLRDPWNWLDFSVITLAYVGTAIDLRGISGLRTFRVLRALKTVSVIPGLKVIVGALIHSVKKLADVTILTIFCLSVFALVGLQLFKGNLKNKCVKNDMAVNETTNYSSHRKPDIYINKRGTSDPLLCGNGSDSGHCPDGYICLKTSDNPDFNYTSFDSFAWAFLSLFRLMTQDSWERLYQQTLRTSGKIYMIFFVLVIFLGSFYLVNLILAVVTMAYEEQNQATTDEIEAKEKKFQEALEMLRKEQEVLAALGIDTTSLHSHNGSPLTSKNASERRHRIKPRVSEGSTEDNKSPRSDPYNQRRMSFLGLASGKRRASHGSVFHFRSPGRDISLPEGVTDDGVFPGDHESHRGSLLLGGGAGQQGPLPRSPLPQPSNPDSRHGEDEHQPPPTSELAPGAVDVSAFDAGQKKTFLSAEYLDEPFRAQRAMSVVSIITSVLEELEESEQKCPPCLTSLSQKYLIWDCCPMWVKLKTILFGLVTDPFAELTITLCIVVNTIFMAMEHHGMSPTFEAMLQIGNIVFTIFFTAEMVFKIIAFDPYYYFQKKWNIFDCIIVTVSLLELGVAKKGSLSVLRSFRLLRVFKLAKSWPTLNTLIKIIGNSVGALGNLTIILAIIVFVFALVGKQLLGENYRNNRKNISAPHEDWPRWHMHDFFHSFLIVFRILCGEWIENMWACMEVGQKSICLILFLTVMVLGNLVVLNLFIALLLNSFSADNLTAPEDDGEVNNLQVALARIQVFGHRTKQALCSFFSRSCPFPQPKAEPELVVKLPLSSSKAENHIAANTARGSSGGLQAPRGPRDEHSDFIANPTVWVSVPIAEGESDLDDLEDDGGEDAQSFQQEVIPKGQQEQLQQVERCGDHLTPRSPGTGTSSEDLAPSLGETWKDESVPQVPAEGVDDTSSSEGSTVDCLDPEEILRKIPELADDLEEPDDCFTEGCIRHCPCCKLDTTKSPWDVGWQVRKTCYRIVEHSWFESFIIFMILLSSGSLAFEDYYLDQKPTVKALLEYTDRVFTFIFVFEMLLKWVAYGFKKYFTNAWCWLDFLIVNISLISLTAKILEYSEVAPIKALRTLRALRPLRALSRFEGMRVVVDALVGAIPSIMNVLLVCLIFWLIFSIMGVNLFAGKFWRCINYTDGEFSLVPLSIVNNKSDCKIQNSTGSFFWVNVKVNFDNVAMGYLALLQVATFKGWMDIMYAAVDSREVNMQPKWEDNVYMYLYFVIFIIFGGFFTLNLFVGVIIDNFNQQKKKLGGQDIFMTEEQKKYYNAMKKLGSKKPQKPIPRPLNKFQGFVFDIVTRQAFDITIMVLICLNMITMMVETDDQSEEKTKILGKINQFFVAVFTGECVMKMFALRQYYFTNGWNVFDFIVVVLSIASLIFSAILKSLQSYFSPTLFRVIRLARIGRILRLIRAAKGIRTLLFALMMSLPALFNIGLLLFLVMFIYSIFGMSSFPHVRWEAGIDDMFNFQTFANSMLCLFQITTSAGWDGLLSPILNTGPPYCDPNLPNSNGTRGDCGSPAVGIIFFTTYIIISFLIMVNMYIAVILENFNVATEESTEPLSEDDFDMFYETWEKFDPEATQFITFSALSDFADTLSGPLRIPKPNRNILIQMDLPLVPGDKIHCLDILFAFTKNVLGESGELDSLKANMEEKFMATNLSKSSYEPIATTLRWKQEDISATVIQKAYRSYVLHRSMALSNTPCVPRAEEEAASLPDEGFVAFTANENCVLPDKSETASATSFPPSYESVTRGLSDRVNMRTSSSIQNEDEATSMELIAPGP

Q: What does the source list for `CSCC[C@@H]1NC(=O)[C@H](Cc2ccc(O)cc2)NC(=O)[C@H](CCCNC(=N)N)NC(=O)[C@@H](NC(=O)[C@@H](N)CC(=O)O)CSSC[C@@H]2NC(=O)[C@@H]3CSSC[C@@H](C(=O)N[C@@H](C)C(=O)N[C@@H](Cc4c[nH]c5ccccc45)C(=O)N[C@@H](CC(=O)O)C(=O)N[C@@H](Cc4ccccc4)C(=O)N[C@H](C(=O)N[C@@H](Cc4ccccc4)C(=O)N[C@H](C(=O)O)[C@@H](C)O)[C@@H](C)O)NC(=O)[C@H](Cc4ccc(O)cc4)NC(=O)[C@H](CCCCN)NC(=O)[C@H](CCSC)NC(=O)[C@H](CCCCN)NC(=O)[C@H](CCCNC(=N)N)NC(=O)[C@H](CCCCN)NC(=O)[C@H](CSSC[C@H](NC(=O)[C@H](CC(=O)O)NC(=O)CNC(=O)[C@H](Cc4ccccc4)NC1=O)C(=O)N[C@@H](CCC(=O)O)C(=O)N[C@@H](CCCCN)C(=O)N[C@@H](CC(=O)O)C(=O)N[C@@H](CCC(=O)O)C(=O)N[C@@H](CC(=O)O)C(=O)N3)NC(=O)CNC(=O)[C@H](CC(C)C)NC(=O)[C@H](Cc1cnc[nH]1)NC(=O)[C@H](CCCCN)NC2=O` [Pnc1a]?
A: IC50 (hNav1.2): 126 nM; IC50 (hNav1.5): 977 nM; IC50 (hNav1.8 [1]): 47900 nM; IC50 (hNav1.8 [2]): 26300 nM; IC50 (hNav1.4): 158 nM; pIC50 Nav1.6 (hNav1.6): 6.89±0.1 M; time after which no intact peptide remained ([3]; PBS pH 6.5, 100 μM): 12 days; time after which no intact peptide remained ([3]; PBS/saline pH 5.7, 100 μM): 25 days; stability over the 25 day period ([3]; bicarbonate buffered saline pH 5.7, 100 μM): remained intact; stability over the 25 day period ([3]; bicarbonate buffered saline pH 7.1, 100 μM): remained intact; stability over the 25 day period ([3]; saline pH 3, 100 μM): remained intact; mechanical threshold of the injured paw compared to vehicle ([4]; intraperitoneal 3 mg/kg): significantly increased; mechanical threshold of the injured paw compared to vehicle ([4]; intraplantar 3 μM): significantly increased; spontaneous pain behaviours evoked by OD1 ([5]; intraperitoneal 0.3, 1, 3 mg/kg, 15 min prior to OD1): concentration-dependently reversed; also recorded: dose-dependently reduced; spontaneous pain behaviours evoked by OD1 ([5]; intraplantar, co-injected with OD1, 100 nM, 300 nM, 1 μM): concentration-dependently reversed; voltage dependence of activation, V50 (hNav1.7; 0.3 nM): −28.94±0.66 mV; voltage dependence of activation, V50 (hNav1.7; 10 nM): −4.40±2.2 mV; effect on the voltage dependence of fast inactivation (hNav1.7; 100 nM): no effect; effect on the voltage dependence of slow inactivation (hNav1.7; 100 nM): no effect; voltage dependence of activation, V50 (hNav1.7; 100 nM): −3.82±0.8 mV
